Read-outs that look alike come from different tables or passages of the source.
What was measured:
MALME-3M = assay: NCI 60 cell line screen (SRB), Melanoma; type: cell-based
SK-MEL2 = assay: NCI 60 cell line screen (SRB), Melanoma; type: cell-based; settings: PG=0
SNB-75 = assay: NCI 60 cell line screen (SRB), CNS Cancer; type: cell-based; settings: PG=0
U251 = assay: NCI 60 cell line screen (SRB), CNS Cancer; type: cell-based
HCT-15 = assay: NCI 60 cell line screen (SRB), Colon Cancer; type: cell-based; settings: PG=0
NCI-H226 = assay: NCI 60 cell line screen (SRB), Non-Small Cell Lung Cancer; type: cell-based
MDA-N = assay: NCI 60 cell line screen (SRB), Breast Cancer; type: cell-based
HOP-62 = assay: NCI 60 cell line screen (SRB), Non-Small Cell Lung Cancer; type: cell-based
A498 = assay: NCI 60 cell line screen (SRB), Renal Cancer; type: cell-based
TK-10 = assay: NCI 60 cell line screen (SRB), Renal Cancer; type: cell-based
MOLT-4 = system: MOLT-4
Description: The screening assay is performed on 96-well microtitre plates. Relatively high initial inoculation densities are used, in order to permit measurement of “time-zero” values and to enhance the screen's ability to detect and provide some differentiation between antiproliferative and cytotoxic response parameters. […] The inoculated microtitre plates are pre-incubated for 24 hours at 37θC prior to drug additions. The five drug dilutions tested routinely range from 10^−4 to 10^−8 molar. Higher or lower concentration ranges may be selected on a nonroutine basis if appropriate solubility and/or prior biological information or other screening data so dictate. Duplicate wells are prepared for all concentrations, (concentration is often denoted by placing brackets around a number); “time-zero” and “no drug” controls are also provided for each test. The minimum amount of compound required for a one-time evaluation in the routine screen can be calculated from the knowledge that each test requires a total of approximately 40 ml (0.04 liter) of cell culture medium containing the highest desired drug concentration. Thus, the amount (grams) of sample required (assuming an upper test concentration limit of 10^−4 M) is: molecular weight of compound×[…]. After a 48 hour incubation (37θC) with the test compound, the cells are fixed in situ to the bottoms of the microtitre wells by addition of 50 ul of either 50% trichloroacetic acid (for adherent cell lines) or 80% trichloroacetic acid (for settled cell suspension lines), followed by incubation for 60 minutes at 4θC. The cellular protein in each well is assayed using a sulforhodamine B (SRB) stain procedure. Briefly, after discarding the supernatants, the microtitre plates are washed 5 times with deionized water and air-dried. One hundred microliters of SRB solution (0.4% w/v in 1% acetic acid) is added to each microtitre well and incubated for 10 minutes at room temperature. Unbound SRB is removed by washing 5 times with 1 % acetic acid. The plates are air-dried, the bound stain is solubilized with Tris buffer, and the optical densities read at 515 nm. SRB is a bright pink anionic dye which, in dilute acetic acid, binds electrostatically to the basic amino acids of TCA-fixed cells. Cryopreserved master stocks of all the lines are maintained, and cultures used for screening are replaced from the master stock after no more than twenty passages in the screening laboratory. The cell line panel consists of 60 lines, organized into nine, disease-related subpanels including leukemia, non-small-cell lung cancer, colon, CNS, melanoma, ovarian, renal, prostate and breast cancers.
The response parameters G150 and LC50 are interpolated values representing the concentrations at which the percentage growth (PG) is +50 and −50, respectively:
GI50 is the concentration for which the PG=+50. At this value the increase from time tzero, in the number or mass of cells in the test well is only 50% as much as the corresponding increase in the control well during this period of the experiment, see Table II. A drug effect of this intensity is interpreted as primary growth inhibition.
TGI is the concentration for which PG=0. At this value the number or mass of cells in the well at the end of the experiment equals the number or mass of cells in the well at time tzero, see Table III. A drug effect of this intensity is regarded as cytostasis.
LC50 is the concentration for which the PG=−50. At this value, the number or mass of cells in the test well at the end of the experiment is half that at time tzero, see Table IV. This is interpreted as cytotoxicity.

IGROVI = assay: NCI 60 cell line screen (SRB), Ovarian Cancer; type: cell-based
MCF7 = assay: NCI 60 cell line screen (SRB), Breast Cancer; type: cell-based
SN12C = assay: NCI 60 cell line screen (SRB), Renal Cancer; type: cell-based
786-0 = assay: NCI 60 cell line screen (SRB), Renal Cancer; type: cell-based
EKVX = assay: NCI 60 cell line screen (SRB), Non-Small Cell Lung Cancer; type: cell-based
SW-620 = assay: NCI 60 cell line screen (SRB), Colon Cancer; type: cell-based; settings: PG=0

Question: What does the source list for C[C@@H]1CC[C@H]2[C@@H](C)C(=O)O[C@@H]3O[C@]4(C)CC[C@@H]1[C@]32OO4 [Artemisinin, artemisinin]?
Answer: Log10TGI (MALME-3M; PG=0): −4.06 log10M; Log10GI50 (MALME-3M; Table IV (LC50, PG=−50)): >−4.00 log10M; Log10TGI (SK-MEL2): >−4.00 log10M; Log10TGI (SNB-75): >−4.00 log10M; Log10TGI (U251; PG=0): >−4.00 log10M; Log10GI50 (U251; PG=+50): >−4.00 log10M; Log10GI50 (U251; Table IV (LC50, PG=−50)): >−4.00 log10M; Log10TGI (HCT-15): >−4.00 log10M; Log10TGI (NCI-H226; PG=0): >−4.00 log10M; Log10GI50 (NCI-H226; PG=+50): >−4.00 log10M; Log10GI50 (NCI-H226; Table IV (LC50, PG=−50)): >−4.00 log10M; Log10TGI (MDA-N; PG=0): −4.00 log10M; Log10GI50 (MDA-N; PG=+50): −4.06 log10M; Log10GI50 (MDA-N; Table IV (LC50, PG=−50)): >−4.00 log10M; Log10TGI (HOP-62; PG=0): >−4.00 log10M; Log10GI50 (HOP-62; PG=+50): >−4.00 log10M; Log10GI50 (HOP-62; Table IV (LC50, PG=−50)): >−4.00 log10M; Log10TGI (A498; PG=0): >−4.00 log10M; Log10GI50 (A498; PG=+50): >−4.00 log10M; Log10GI50 (A498; Table IV (LC50, PG=−50)): >−4.00 log10M; Log10TGI (TK-10; PG=0): >−4.00 log10M; Log10GI50 (TK-10; PG=+50): >−4.00 log10M; Log10GI50 (TK-10; Table IV (LC50, PG=−50)): >−4.00 log10M; Log10GI50 (MOLT-4; MOLT-4, PG=+50): −4.73 log10M; Log10TGI (MOLT-4; MOLT−4, PG=0): −4.00 log10M; Log10GI50 (MOLT-4; Table IV (LC50, PG=−50), MOLT−4): >−4.00 log10M; drug concentration for cytotoxicity (percentage growth −50) (MOLT-4; human, 48 h): greater than 10^−4 M; Log10TGI (IGROVI; PG=0): >−4.00 log10M; Log10GI50 (IGROVI; PG=+50): −4.31 log10M; Log10GI50 (IGROVI; Table IV (LC50, PG=−50)): >−4.00 log10M; Log10TGI (MCF7; PG=0): >−4.00 log10M; Log10GI50 (MCF7; PG=+50): >−4.00 log10M; Log10GI50 (MCF7; Table IV (LC50, PG=−50)): >−4.00 log10M; Log10TGI (SN12C; SN12C, PG=0): >−4.00 log10M; Log10GI50 (SN12C; SNI2C, PG=+50): −4.21 log10M; Log10GI50 (SN12C; Table IV (LC50, PG=−50), SN12C): >−4.00 log10M; Log10TGI (786-0; PG=0): >−4.00 log10M; Log10GI50 (786-0; PG=+50): >−4.00 log10M; Log10GI50 (786-0; Table IV (LC50, PG=−50)): >−4.00 log10M; Log10TGI (EKVX; PG=0): >−4.00 log10M; Log10GI50 (EKVX; PG=+50): −4.17 log10M; Log10GI50 (EKVX; Table IV (LC50, PG=−50)): >−4.00 log10M; Log10TGI (SW-620): >−4.00 log10M
